Test results from the NIST ThermoML archive (doi:10.1007/s10765-006-0122-6).

Conditions: for kinematic viscosity / surface tension liquid-gas: surface light scattering; for speed of sound / thermal diffusivity: dynamic light scattering

FC(C(F)(F)F)C(F)(F)F [1,1,1,2,3,3,3-heptafluoropropane]
Conditions	Critical temperature [K]	kinematic viscosity [m2/s]	speed of sound [m/s]	surface tension liquid-gas [mN/m]	thermal diffusivity [m2/s]
253.15 K, Liquid	–	2.88e-07	–	12.26	–
263.15 K, Liquid	–	2.54e-07	–	10.96	–
273.15 K, Liquid	–	2.28e-07	–	9.76	–
283.15 K, Liquid	–	2.05e-07	–	8.62	–
293.15 K, Liquid	–	1.83e-07	–	7.46	–
293.22 K, Liquid	–	–	437.4	–	3.66e-08
303.12 K, Liquid	–	–	397.8	–	3.5e-08
303.15 K, Liquid	–	1.66e-07	–	6.31	–
313.15 K, Liquid	–	1.52e-07	–	5.25	–
313.2 K, Liquid	–	–	356.8	–	3.26e-08
323.15 K, Liquid	–	1.36e-07	–	4.23	–
323.18 K, Liquid	–	–	315.5	–	3.14e-08
332.72 K, Liquid	–	–	275.1	–	2.95e-08
333.15 K, Liquid	–	1.22e-07	–	3.23	–
342.68 K, Liquid	–	–	231.6	–	2.76e-08
343.15 K, Liquid	–	1.08e-07	–	2.3	–
345.66 K, Gas	–	–	92.5	–	1.01e-07
348.02 K, Liquid	–	–	208.4	–	2.66e-08
348.15 K, Gas	–	–	90.6	–	9.3e-08
350.65 K, Gas	–	–	89.4	–	8.46e-08
353.02 K, Liquid	–	–	185.5	–	2.51e-08
353.15 K, Gas	–	–	87.1	–	7.64e-08
353.15 K, Liquid	–	9.43e-08	–	1.42	–
355.64 K, Gas	–	–	85.1	–	6.9e-08
358.09 K, Liquid	–	–	160.8	–	2.36e-08
358.14 K, Gas	–	–	82.9	–	6.06e-08
358.15 K, Liquid	–	8.74e-08	–	1.02	–
360.64 K, Gas	–	–	80.4	–	5.25e-08
363.09 K, Liquid	–	–	134.7	–	2.11e-08
363.14 K, Gas	–	–	77.9	–	4.41e-08
363.15 K, Liquid	–	8.08e-08	–	0.644	–
365.63 K, Gas	–	–	75.2	–	3.6e-08
365.9 K, Liquid	–	–	118.5	–	1.92e-08
367.67 K, Gas	–	–	72.8	–	2.91e-08
368.08 K, Liquid	–	–	106.1	–	1.72e-08
368.15 K, Liquid	–	7.34e-08	–	0.314	–
369.47 K, Gas	–	–	70.5	–	2.26e-08
370.15 K, Liquid	–	7.03e-08	–	0.2	–
370.2 K, Liquid	–	–	92.6	–	1.42e-08
370.76 K, Gas	–	–	68.7	–	1.78e-08
371.15 K, Liquid	–	6.79e-08	–	0.145	–
371.41 K, Liquid	–	–	83.8	–	1.21e-08
371.96 K, Gas	–	–	67	–	1.32e-08
372.15 K, Liquid	–	6.74e-08	–	–	–
372.19 K, Liquid	–	–	78.2	–	9.91e-09
372.96 K, Gas	–	–	65.3	–	9.21e-09
372.99 K, Liquid	–	–	72.8	–	7.88e-09
373.5 K, Liquid	–	–	68.3	–	6.11e-09
373.95 K, Gas	–	–	63.6	–	4.9e-09
373.99 K, Liquid	–	–	65.3	–	4.34e-09
374.45 K, Gas	–	–	–	–	2.65e-09
374.49 K, Liquid	–	–	–	–	2.24e-09
374.65 K, Gas	–	–	–	–	1.73e-09
374.67 K, Liquid	–	–	–	–	1.36e-09
Liquid, Visual observation in an unstirred cell	374.9	–	–	–	–
